The text below walks through data of US9139548B2, “Polycyclic derivatives, preparation process and pharmaceutical use thereof” (Jiangsu Hengrui Medicine Co., Ltd., priority 2012, dated 2015).

The target in this experiment is T1, GPR40 (Homo sapiens, UniProt O14842).
T1 construct: host or cells: CHO-K1 (Cell bank of the Chinese Academy of Sciences, GNHa 7), retrovirus infection
In words: Agonist activity on CHO-K1/GPR40 cell (Fluo-4 calcium fluorescence). The conditions noted are these: CHO-K1 cell line expressing GPR40, calcium ion fluorescence. In kind it is cell-based. The text has this: Agonist activity of compounds of the present disclosure on CHO-K1/GPR40 cell.
The following method was used to determine the agonist activity of compounds of the present disclosure on GPR40. The experiment process is described as follows:
CHO-K1/GPR40 cell (CHO-K1 cell line expressing GPR40, which was constructed using retrovirus infection method, CHO-K1/GPR40 cell for short, wherein CHO-K1 cell was purchased from Cell bank of the Chinese Academy of Sciences, catalogue number GNHa 7; GPR40 cDNA was purchased from Guangzhou FulenGen Co., Ltd, catalogue number EX-UO270-MO2) was inoculated in a 96-well plate with an inoculation density of 25000 cells/well. The cell plate was incubated at 37° C. and 5% CO2 for 24 hours. The cell culture fluid was discarded during the experiment, the cells were washed with buffer solution (1×HBSS+20 mM HEPES pH 7.4) once, 100 μL of Fluo-4 calcium ion dye was quickly added into each well, incubated at 37° C. in the dark for 30 minutes, and then at room temperature for another 30 minutes. During the determination, the baseline value of each well was read at first, and then different concentrations of drug were added to the wells (50 μL/well), and the fluorescence values were then read. The fluorescence excitation wavelength was 494 nm and the emission wavelength was 516 nm. The increase of fluorescence intensity was proportional to calcium ion level in the cells. Cell response rate of each cell/(The maximum fluorescence value−The minimum fluorescence value)/The minimum fluorescence value. EC50 values of the compounds were calculated

T1 sequence (O14842 whole entry): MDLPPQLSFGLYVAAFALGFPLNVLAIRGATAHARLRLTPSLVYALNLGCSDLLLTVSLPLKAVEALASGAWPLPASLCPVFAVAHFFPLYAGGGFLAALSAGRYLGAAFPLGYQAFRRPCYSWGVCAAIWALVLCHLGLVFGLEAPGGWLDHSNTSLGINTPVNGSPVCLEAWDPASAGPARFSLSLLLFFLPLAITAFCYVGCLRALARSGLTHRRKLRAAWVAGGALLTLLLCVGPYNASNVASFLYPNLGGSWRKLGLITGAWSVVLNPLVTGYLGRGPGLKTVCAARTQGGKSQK

As for `Cc1cc(O[C@H]2CCOC2)cc(C)c1-c1cccc(COc2ccc3c(c2)OC[C@H]3CC(=O)O)c1C` [Example 12, 2-((S)-6-((2,2′,6′-Trimethyl-4′-(((S)-tetrahydrofuran-3-yl)oxy)biphenyl-3-yl)methoxy)-2,3-dihydrobenzofuran-3-yl)acetic acid], the EC50 is 113 nM.

For `Cc1cc(OC2CCN(S(C)(=O)=O)CC2)cc(C)c1-c1cccc(COc2ccc3c(c2)OC[C@H]3CC(=O)O)c1` [Example 5, (S)-2-(6-((2′,6′-Dimethyl-4′-((1-(methylsulfonyl)piperidin-4-yl)oxy)biphenyl-3-yl)methoxy)-2,3-dihydrobenzofuran-3-yl)acetic acid], the EC50 is 107 nM.

In the case of `Cc1cc(OC2CN(C(=O)CO)C2)cc(C)c1-c1cccc(COc2ccc3c(c2)OC[C@H]3CC(=O)O)c1` [Example 21, (S)-2-(6-((4′-((1-(2-hydroxyacetyl)azetidin-3-yl)oxy)-2′,6′-dimethylbiphenyl-3-yl)methoxy)-2,3-dihydrobenzofuran-3-yl)acetic acid], the EC50 came to 131 nM.

Take `Cc1cc(O[C@H]2CCOC2)cc(C)c1-c1cccc(COc2ccc3c(c2)OC[C@@H]3CC(=O)O)c1` [Example 34, 2-((R)-6-((2′,6′-dimethyl-4′-(((S)-tetrahydrofuran-3-yl)oxy)biphenyl-3-yl)methoxy)-2,3-dihydrobenzofuran-3-yl)acetic acid]: the EC50 turned out to be 113 nM.

`Cc1cc(OC2CCCC2)cc(C)c1-c1cccc(COc2ccc3c(c2)OC[C@H]3CC(=O)O)c1` [Example 10, (S)-2-(6-((4′-(Cyclopentyloxy)-2′,6′-dimethylbiphenyl-3-yl)methoxy)-2,3-dihydrobenzofuran-3-yl)acetic acid]: the EC50 came out at 134 nM.

As to `Cc1cc(OC2CCN(C(=O)[C@H](C)O)CC2)cc(C)c1-c1cccc(COc2ccc3c(c2)OC[C@H]3CC(=O)O)c1` [Example 22, 2-((S)-6-((4′-((1-((S)-2-hydroxypropanoyl)piperidin-4-yl)oxy)-2′,6′-dimethylbiphenyl-3-yl)methoxy)-2,3-dihydrobenzofuran-3-yl)acetic acid], the concentration giving a half-maximal response (EC50) is 77 nM.

Take `Cc1cc(OC2CCNCC2)cc(C)c1-c1cccc(COc2ccc3c(c2)OC[C@H]3CC(=O)O)c1` [Example 4, (S)-2-(6-((2′,6′-Dimethyl-4′-(piperidin-4-yloxy)biphenyl-3-yl)methoxy)-2,3-dihydrobenzofuran-3-yl)acetic acid]: the EC50 was 81 nM.

For the compound `Cc1cc(OC2CN(C(=O)[C@H](C)O)C2)cc(C)c1-c1cccc(COc2ccc3c(c2)OC[C@H]3CC(=O)O)c1` [Example 20, 2-((S)-6-((4′-((1-((S)-2-hydroxypropanoyl)azetidin-3-yl)oxy)-2′,6′-dimethylbiphenyl-3-yl)methoxy)-2,3-dihydrobenzofuran-3-yl)acetic acid], the EC50 was 140 nM.

Take `Cc1cc(O[C@@H]2CCOC2)cc(C)c1-c1cccc(COc2ccc3c(c2)OC[C@@H]3CC(=O)O)c1` [Example 33, 2-((R)-6-((2′,6′-dimethyl-4′-(((R)-tetrahydrofuran-3-yl)oxy)biphenyl-3-yl)methoxy)-2,3-dihydrobenzofuran-3-yl)acetic acid]: the EC50 worked out at 113 nM.

Take `Cc1ccc(-c2c(C)cc(O[C@H]3CCOC3)cc2C)cc1COc1ccc2c(c1)OC[C@H]2CC(=O)O` [Example 27, 2-((S)-6-((2′,4,6′-trimethyl-4′-(((S)-tetrahydrofuran-3-yl)oxy)biphenyl-3-yl)methoxy)-2,3-dihydrobenzofuran-3-yl)acetic acid]: the EC50 turned out to be 53 nM.

Take `Cc1cc(O[C@@H]2CCC[C@H]2O)cc(C)c1-c1cccc(COc2ccc3c(c2)OC[C@H]3CC(=O)O)c1` (mixture of isomers) [Example 17, 2-((S)-6-((4′-(((1R,2R)/(1S,2S)-2-Hydroxycyclopentyl)oxy)-2′,6′-dimethylbiphenyl-3-yl)methoxy)-2,3-dihydrobenzofuran-3-yl)acetic acid]: the EC50 was 157 nM.

On to `Cc1cc(O[C@@H]2CC[C@H](O)[C@@H]2O)cc(C)c1-c1cccc(COc2ccc3c(c2)OC[C@H]3CC(=O)O)c1` [Example 25, 2-((S)-6-((4′-(((1R,2S,3S)-2,3-dihydroxycyclopentyl)oxy)-2′,6′-dimethylbiphenyl-3-yl)methoxy)-2,3-dihydrobenzofuran-3-yl)acetic acid], for which the concentration giving a half-maximal response (EC50) was determined as 31 nM.

With `Cc1cc(O[C@@H]2CCN(S(C)(=O)=O)C2)cc(C)c1-c1cccc(COc2ccc3c(c2)OC[C@H]3CC(=O)O)c1` [Example 11, 2-((S)-6-((2′,6′-Dimethyl-4′-(((R)-1-(methylsulfonyl)pyrrolidin-3-yl)oxy)biphenyl-3-yl)methoxy)-2,3-dihydrobenzofuran-3-yl)acetic acid], the EC50 turned out to be 73 nM.

In the case of `COC(=O)N1CCC(Oc2cc(C)c(-c3cccc(COc4ccc5c(c4)OC[C@H]5CC(=O)O)c3)c(C)c2)CC1` [Example 23, (S)-2-(6-((4′-((1-(methoxycarbonyl)piperidin-4-yl)oxy)-2′,6′-dimethylbiphenyl-3-yl)methoxy)-2,3-dihydrobenzofuran-3-yl)acetic acid], the EC50 was 141 nM.

As to `Cc1cc(O[C@H]2CCN(S(C)(=O)=O)C2)cc(C)c1-c1cccc(COc2ccc3c(c2)OC[C@H]3CC(=O)O)c1` [Example 8, 2-((S)-6-((2′,6′-Dimethyl-4′-(((S)-1-(methylsulfonyl)pyrrolidin-3-yl)oxy)biphenyl-3-yl)methoxy)-2,3-dihydrobenzofuran-3-yl)acetic acid], the EC50 was 88 nM.

In the case of `Cc1cc(O[C@@H]2CCOC2)c(F)c(C)c1-c1cccc(COc2ccc3c(c2)OC[C@H]3CC(=O)O)c1` [Example 28, 2-((S)-6-((3′-fluoro-2′,6′-dimethyl-4′-(((R)-tetrahydrofuran-3-yl)oxy)biphenyl-3-yl)methoxy)-2,3-dihydrobenzofuran-3-yl)acetic acid], the concentration for a half-maximal effect (EC50) came to 82 nM.
